Data on 29 compounds can be found in patent US8563542B2 (Cyclacel Limited, priority 2007, dated 2013).

A value given as a limit tells only on which side of the number the result lay.

In general, IC50 refers to the point on the concentration scale where inhibition reaches its midpoint.

The experiment deals with PLK1 (Homo sapiens, UniProt P53350). Nature of the experiment: PLK1 protein kinase assay (CDC25C phosphorylation, [γ-32P]-ATP). Type of experiment: biochemical. Conditions: Table 2, PLK1 IC50; class symbols; read-out: PLK1 IC50.
PLK1, sequence (P53350 whole entry): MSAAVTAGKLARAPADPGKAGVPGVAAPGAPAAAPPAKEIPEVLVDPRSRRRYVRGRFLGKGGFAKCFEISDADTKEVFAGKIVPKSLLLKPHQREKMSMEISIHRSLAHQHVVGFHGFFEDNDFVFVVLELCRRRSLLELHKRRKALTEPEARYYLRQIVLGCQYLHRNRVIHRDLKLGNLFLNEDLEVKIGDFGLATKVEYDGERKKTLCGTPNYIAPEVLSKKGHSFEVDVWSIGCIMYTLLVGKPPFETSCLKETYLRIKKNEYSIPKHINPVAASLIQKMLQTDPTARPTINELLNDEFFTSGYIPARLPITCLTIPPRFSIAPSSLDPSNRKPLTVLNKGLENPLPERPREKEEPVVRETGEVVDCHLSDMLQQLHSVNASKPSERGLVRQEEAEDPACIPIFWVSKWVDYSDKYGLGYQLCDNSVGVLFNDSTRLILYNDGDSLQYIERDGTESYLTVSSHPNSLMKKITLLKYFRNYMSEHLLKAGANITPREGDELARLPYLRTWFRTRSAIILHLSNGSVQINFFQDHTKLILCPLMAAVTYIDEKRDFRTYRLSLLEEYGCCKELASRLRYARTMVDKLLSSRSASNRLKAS

Turning to `COc1cc(C(=O)NC2CCN(C)CC2)ccc1Nc1ncc2c(n1)N(C1CCCC1)CC1(CCC1)C(=O)N2C` [compound 100, 4-(9-Cyclopentyl-5-methyl-6-oxo-6,7,8,9-tetrahydro-5H-spiro[pyrimido[4,5-b][1,4]diazepin-3,1′-cyclobutane]-2-ylamino)-3-methoxy-N-(1-methyl-piperidin-4-yl)-benzamide], the half-inhibitory concentration (IC50) is under 100 nM.
The result for `COc1cc(C(=O)NC2CCN(C)CC2)ccc1Nc1ncc2c(n1)N(C1CCCC1)CC1(CCCC1)C(=O)N2C` [compound 101, 4-(9-Cyclopentyl-5-methyl-6-oxo-6,7.8,9-tetrahydro-5H-spiro[pyrimido[4,5-b][1,4]diazepin-3,1′-cyclopentane]-2-ylamino)-3-methoxy-N-(1-methyl-piperidin-4-yl)-benzamide] reads under 1000 nM; that for `C=CCN1CCC(=O)N(C)c2cnc(Nc3ccc(C(=O)NC4CCN(C)CC4)cc3OC)nc21` [compound 102, 4-(9-Allyl-5-methyl-6-oxo-6,7,8,9-tetrahydro-5H-pyrimido[4,5-b][1,4]diazepin-2-ylamino)-3-methoxy-N-(1-methyl-piperidin-4-yl)-benzamide], under 1000 nM; that for `CN1C(=O)CCN(C2CCCC2)c2nc(NCc3ccsc3)ncc21` [compound 106, 9-Cyclopentyl-5-methyl-2-[(thiophen-3-ylmethyl)-amino]-5,7,8,9-tetrahydro-pyrimido[4,5-b][1,4]diazepin-6-one], under 10000 nM.
Regarding `CN1C(=O)CCN(C2CCCC2)c2nc(NCc3ccoc3)ncc21` [compound 107, 9-Cyclopentyl-2-[(furan-3-ylmethyl)-amino]-5-methyl-5,7,8,9-tetrahydro-pyrimido[4,5-b][1,4]diazepin-6-one], the IC50 was under 10000 nM.
The result for `COc1cc(C(=O)NC2CCN(C)CC2)ccc1Nc1ncc2c(n1)N(C)CCC(=O)N2C` [compound 111, 4-(5,9-Dimethyl-6-oxo-6,7,8,9-tetrahydro-5H-pyrimido[4,5-b][1,4]diazepin-2-ylamino)-3-methoxy-N-(1-methyl-piperidin-4-yl)-benzamide] reads under 1000 nM.
Consider `CNC(=O)c1ccc(Nc2ncc3c(n2)N(C)CCC(=O)N3C)c(OC)c1` [compound 112, 4-(5,9-Dimethyl-6-oxo-6,7,8,9-tetrahydro-5H-pyrimido[4,5-b][1,4]diazepin-2-ylamino)-3-methoxy-N-methyl-benzamide], for which the IC50 was under 10000 nM.
The result for `CNC(=O)c1ccc(Nc2ncc3c(n2)N(C(C)C)CC2(CC2)C(=O)N3C)c(OC)c1` [compound 113, 4-(9-Isopropyl-5-methyl-6-oxo-6,7,8,9-tetrahydro-5H-spiro[pyrimido[4,5-b][1,4]diazepin-3,1′-cyclopropane]-2-ylamino)-3-methoxy-N-methyl-benzamide] reads under 1000 nM.
The result for `CN1C(=O)CCN(C2CCCC2)c2nc(NCc3ccc4c(c3)OCCO4)ncc21` [compound 127, 9-Cyclopentyl-2-[(2,3-dihydro-benzo[1,4]dioxin-6-ylmethyl)-amino]-5-methyl-5,7,8,9-tetrahydro-pyrimido[4,5-b][1,4]diazepin-6-one] reads under 10000 nM; that for `CN1C(=O)CCN(C2CCCC2)c2nc(NCc3cc4ccccc4s3)ncc21` [compound 129, 2-[(Benzo[b]thiophen-2-ylmethyl)-amino]-9-cyclopentyl-5-methyl-5,7,8,9-tetrahydro-pyrimido[4,5-b][1,4]diazepin-6-one], under 10000 nM.
In the case of `Cc1cccc(CNc2ncc3c(n2)N(C2CCCC2)CCC(=O)N3C)c1` [compound 131, 9-Cyclopentyl-5-methyl-2-(3-methyl-benzylamino)-5,7,8,9-tetrahydro-pyrimido[4,5-b][1,4]diazepin-6-one] it was under 10000 nM; in that of `CNC(=O)c1cccc(Nc2ncc3c(n2)N(C2CCCC2)CCC(=O)N3C)c1C` [compound 141, 3-(9-Cyctopentyl-5-methyl-6-oxo-6,7,8,9-tetrahydro-5H-pyrimido[4,5-b][1,4]diazepin-2-ylamino)-2,N-dimethyl-benzamide], under 10000 nM; in that of `Cc1c(Nc2ncc3c(n2)N(C2CCCC2)CCC(=O)N3C)cccc1C(=O)NCCO` [compound 142, 3-(9-Cyclopentyl-5-methyl-6-oxo-6,7,8,9-tetrahydro-5H-pyrimido[4,5-b][1,4]diazepin-2-ylamino)-N-(2-hydroxy-ethyl)-2-methyl-benzamide], under 10000 nM.
Consider `COc1ccc(C(=O)NC2CCN(C)CC2)cc1Nc1ncc2c(n1)N(C1CCCC1)CCC(=O)N2C` [compound 143, 3-(9-Cyclopentyl-5-methyl-6-oxo-6,7,8,9-tetrahydro-5H-pyrimido[4,5-b][1,4]diazepin-2-ylamino)-4-methoxy-N-(1-methyl-piperidin-4-yl)-benzamide], for which the half-inhibitory concentration (IC50) is under 1000 nM.
In the case of `CNC(=O)c1ccc(OC)c(Nc2ncc3c(n2)N(C2CCCC2)CCC(=O)N3C)c1` [compound 144, 3-(9-Cyclopentyl-5-methyl-6-oxo-6,7,8,9-tetrahydro-5H-pyrimido[4,5-b][1,4]diazepin-2-ylamino)-4-methoxy-N-methyl-benzamide], the IC50 was under 1000 nM.
With `COc1ccc(C(=O)NCCO)cc1Nc1ncc2c(n1)N(C1CCCC1)CCC(=O)N2C` [compound 145, 3-(9-Cyclopentyl-5-methyl-6-oxo-6,7,8,9-tetrahydro-5H-pyrimido[4,5-b][1,4]diazepin-2-ylamino)-N-(2-hydroxy-ethyl)-4-methoxy-benzamide], the 50% inhibitory concentration (IC50) is under 1000 nM.
For `COc1cc(C(=O)N(C)CCCN(C)C)ccc1Nc1ncc2c(n1)N(C1CCCC1)CCC(=O)N2C` [compound 147, 4-(9-Cyclopentyl-5-methyl-6-oxo-6,7,8,9-tetrahydro-5H-pyrimido[4,5-b][1,4]diazepin-2-ylamino)-N-(3-dimethylamino-propyl)-3-methoxy-N-methyl-benzamide], the IC50 is under 1000 nM.
The result for `CCN(CC)CCNC(=O)c1ccc(Nc2ncc3c(n2)N(C2CCCC2)CCC(=O)N3C)c(OC)c1` [compound 148, 4-(9-Cyclopentyl-5-methyl-6-oxo-6,7,8,9-tetrahydro-5H-pyrimido[4,5-b][1,4]diazepin-2-ylamino)-N-(2-diethylamino-ethyl)-3-methoxy-benzamide] reads under 100 nM; that for `COc1cc(C(=O)NCCCN(C)C)ccc1Nc1ncc2c(n1)N(C1CCCC1)CCC(=O)N2C` [compound 149, 4-(9-Cyclopentyl-5-methyl-6-oxo-6,7,8,9-tetrahydro-5H-pyrimido[4,5-b][1,4]diazepin-2-ylamino)-N-(3-dimethylamino-propyl)-3-methoxy-benzamide], under 1000 nM.
In the case of `COc1cc(C(=O)N[C@H]2c3ccccc3C[C@H]2O)ccc1Nc1ncc2c(n1)N(C1CCCC1)CCC(=O)N2C` [compound 150, 4-(9-Cyclopentyl-5-methyl-6-oxo-6,7,8,9-tetrahydro-5H-pyrimido[4,5-b][1,4]diazepin-2-ylamino)-N-((1S,2R)-2-hydroxy-indan-1-yl)-3-methoxy-benzamide] it was under 1000 nM.
In the case of `COc1cc(C(=O)N[C@@H](CO)C(C)C)ccc1Nc1ncc2c(n1)N(C1CCCC1)CCC(=O)N2C` [compound 152, 4-(9-Cyclopentyl-5-methyl-6-oxo-6,7,8,9-tetrahydro-5H-pyrimido[4,5-b][1,4]diazepin-2-ylamino)-N-((R)-1-hydroxymethyl-2-methyl-propyl)-3-methoxy-benzamide] it was under 1000 nM.
On to `CCC(CO)NC(=O)c1ccc(Nc2ncc3c(n2)N(C2CCCC2)CCC(=O)N3C)c(OC)c1` (centres unmarked) [compound 153, 4-(9-Cyclopentyl-5-methyl-6-oxo-6,7,8,9-tetrahydro-5H-pyrimido[4,5-b][1,4]diazepin-2-ylamino)-N-(1-hydroxymethyl-propyl)-3-methoxy-benzamide], for which the half-maximal inhibitory concentration (IC50) was under 1000 nM.
In the case of `COc1cc(C(=O)NCC(C)O)ccc1Nc1ncc2c(n1)N(C1CCCC1)CCC(=O)N2C` (centres unmarked) [compound 154, 4-(9-Cyclopentyl-5-methyl-6-oxo-6,7,8,9-tetrahydro-5H-pyrimido[4,5-b][1,4]diazepin-2-ylamino)-N-(2-hydroxy-propyl)-3-methoxy-benzamide] it was under 1000 nM; in that of `COc1cc(C(=O)NC(C)(C)CN2CCCC2)ccc1Nc1ncc2c(n1)N(C1CCCC1)CCC(=O)N2C` [compound 155, 4-(9-Cyclopentyl-5-methyl-6-oxo-6,7,8,9-tetrahydro-5H-pyrimido[4,5-b][1,4]diazepin-2-ylamino)-N-(1,1-dimethyl-2-pyrrolidin-1-yl-ethyl)-3-methoxy-benzamide], under 1000 nM.
The result for `COc1cc(C(=O)NC(C)(C)CN2CCCCC2)ccc1Nc1ncc2c(n1)N(C1CCCC1)CCC(=O)N2C` [compound 156, 4-(9-Cyclopentyl-5-methyl-6-oxo-6,7,8,9-tetrahydro-5H-pyrimido[4,5-b][1,4]diazepin-2-ylamino)-N-(1,1-dimethyl-2-piperidin-1-yl-ethyl)-3-methoxy-benzamide] reads under 100 nM; that for `COc1cc(C(=O)NC2CCN(Cc3ccccc3)CC2)ccc1Nc1ncc2c(n1)N(C1CCCC1)CCC(=O)N2C` [compound 157, N-(1-Benzyl-piperidin-4-yl)-4-(9-cyclopentyl-5-methyl-6-oxo-6,7,8,9-tetrahydro-5H-pyrimido[4,5-b][1,4]diazepin-2-ylamino)-3-methoxy-benzamide], under 100 nM.
Consider `COc1cc(C(=O)NCC2CCN(C)CC2)ccc1Nc1ncc2c(n1)N(C1CCCC1)CCC(=O)N2C` [compound 158, 4-(9-Cyclopentyl-5-methyl-6-oxo-6,7,8,9-tetrahydro-5H-pyrimido[4,5-b][1,4]diazepin-2-ylamino)-3-methoxy-N-(1-methyl-piperidin-4-ylmethyl)-benzamide], for which the half-maximal inhibitory concentration (IC50) is under 100 nM.
In the case of `COc1cc(C(=O)NCCCO)ccc1Nc1ncc2c(n1)N(C1CCCC1)CCC(=O)N2C` [compound 159, 4-(9-Cyclopentyl-5-methyl-6-oxo-6,7,8,9-tetrahydro-5H-pyrimido[4,5-b][1,4]diazepin-2-ylamino)-N-(3-hydroxy-propyl)-3-methoxy-benzamide] it was under 1000 nM; in that of `COc1cc(C(=O)NN2CCN(C)CC2)ccc1Nc1ncc2c(n1)N(C1CCCC1)CCC(=O)N2C` [compound 160, 4-(9-Cyclopentyl-5-methyl-6-oxo-6,7,8,9-tetrahydro-5H-pyrimido[4,5-b][1,4]diazepin-2-ylamino)-3-methoxy-N-(4-methyl-piperazin-1-yl)-benzamide], under 100 nM.
